Source: US20100093642A1, “NOVEL POLYPEPTIDES” (priority 2006, published 2010)
No end group written: not given here.

What was measured:
Saccharomyces cerevisiae = conditions: 48 h
Procedure: (§1) The various derivates of P17 (brominated and non-brominated) were tested for their ability to inhibit fungal growth of the yeast strains Saccaharomyces cerevisiae sp, Candida albicans (ATCC 10231) and Rodotorula sp., and the filamentous strains Botrytis cinerea 101, Penicillium rogveforti, and Fusarium sp. All strains, except C. albicans, were a gift from Prof. A. Tronsmo (The Norwegian University of Life Sciences, Ås, Norway). The fungi were cultivated on potato dextrose agar, supplemented with 2% glucose, at room temperature. Before antifungal testing, the fungi were dissolved in potato dextrose broth (Difco) at half-strength. Cell concentration was determined and adjusted after counting in a Bürker chamber. The filamentous fungi were filtered through a piece of cotton before counting. An aliquot of 50 μl of fungal spores (final concentration 2×10^5 spores per ml) were inoculated in microtiter plates (96 wells) along with 50 μl peptide solution. Peptides, dissolved in distilled water, were tested at final concentrations (two-fold dilutions) ranging from 50 μM to 0.1 μM. Cultures were grown in the dark (without shaking) and with a moist chamber at 25° C. (37° C. for C. albicans). Growth inhibition was determined microscopically after 48 h of incubation. MIC was determined as the lowest concentration of peptide resulting in 50% inhibition of visible growth.

Botrytis cinerea 101 = conditions: 48 h
Procedure: as §1

[1] = test system: Candida albicans (ATCC 10231); conditions: ATCC 10231, 48 h
Procedure: as §1

[2] = test system: human breast malignant carcinoma cell line MCF-7; format: cell-based; conditions: 24 h
Procedure: The cytotoxic effects of the peptides on different human tumour cells were measured using the MTT colorimetric assay (Mosmann, 1983). […] Dissolved MIT is converted to an insoluble purple formazan by cleavage of the tetrazolium ring by dehydrogenase enzymes. This water insoluble formazan can be solubilized using isopropanol or other solvents and the dissolved material is measured spectrophotometrically. The absorbance was measured as a function of concentration of converted dye. The conversion of the soluble dye to the insoluble purple formazan is utilized in assays for measurement of cell proliferation. […] We used this assay to measure the degree of cell death caused by the peptides. MCF-7 was maintained in EMEM, A2058 in DMEM and […]-29 in RPMI-1640 medium supplemented with 10% heat inactivated […] and 1% L-glutamine-L-alanine in a humidified atmosphere of 5% CO2 at 37° C. The human embryonic fibroblast cell line, MRC-5 (which is normal fibroblasts), was cultured as a monolayer in MEM medium, under the same conditions as described for the tumour cell lines. Cells to be used in the assay were grown to a minimum of 75% confluency, trypsinated and split to single cell suspension, counted and centrifuged at 1500 rpm for 10 min. The cell pellet was resuspended to a concentration of 2×10^5 cells/ml (HT-29) or 1×10^5 (MRC-5, MCF7 and A2058) in DMEM without FBS and L-glutamine-L-alanine (assay-medium). All cell lines were routinely tested for mycoplasma infection using a PCR-based mycoplasma detection kit (MycoSensor PCR Assay Kit, Stratagene), following the supplier's instructions. All cell lines were mycoplasma free. The cytotoxicity was measured using the MTT method (Mosmann, 1983), with minor modifications. Different human tumour cells (1-2×10^5) were applied in 96-well culture plates in a volume of 100 μl DMEM medium and incubated at 37° C. for 24 hours. The medium was removed and the cells were treated with 100 μl of peptide solution (concentrations ranging from 0 to 200 μg/ml), diluted in a) RPMI-1640 medium supplemented with 5% heat inactivated FBS, or b) RPMI-1640 medium without FBS. The plates were incubated at 37° C. for 24 hours. Cells treated with Triton X-100 (1%) was used as positive control (100% killing) whereas cells plus medium only were used as negative control. […] A volume of 70 μl of the supernatant was then removed and […] (0.04 M HCl in isopropanol) added to each well. The plate was placed on a shaker for 1 hour at room temperature and read spectrophotometrically at 590 nm in a microtiter plate reader (DTX880 Multimode Detector, Beckman Coulter).

[3] = test system: C. glutamicum (ATCC 13032); format: cell-based, Corynebacterium glutamicum
Procedure: (§2) The antibacterial activities of the different peptides were determined by continuous monitoring of bacterial growth with a Bioscreen C microbiology reader (Labsystems Oy, Helsinki, Finland). The test was performed in 100-well flat-bottomed honeycomb plates, in which 50 μl of test fractions were incubated with 50 μl of a suspension of an actively growing culture of bacteria diluted in Mueller Hinton medium to a starting concentration of 3×10^4 cells per ml. […] [NT] 13032) and S. aureus (ATCC 9144), were chosen as test bacteria. […] Polymyxin B (Sigma, St.

Pseudomonas aeruginosa = format: cell-based
Procedure: as §2

TNF-α = assay: Inhibition of LPS induced TNF-α response in THP-1 cells (ELISA); format: cell-based, human; conditions: Ratio TC50 (THP-1)/EC50 (anti-TNFα)
Procedure: FIG. 12. Antiinnflammatory response measured as inhibition of tumor necrosis factor alpha (TNF-α) response in THP-1 cells after stimulation with LPS. THP-1 cells (1×10^6 cells/ml) were treated with P17 derivates in different concentrations for 1 hour, and subsequently stimulated with 100 ng/ml LPS for 6 hours. LPS was used as control for induction of TNF-α. (set as 100% response), RPMI media was used as negative (non-stimulated) control, and cycloheximide (Chx, 10 μg/ml) was used as a an inhibitory control for LPS induced TNF-α. The data presented are the average of two parallells. (A) The effect of the peptides P17 HC and P17 HC (1-20). (B) The effect of the peptides P17 HC (11-20) and P17 HC-Br.
The THP-1 cells (ATCC, TIB-202) were maintained in suspension in RPMI-1640 medium with 25 mM HEPES and 2 mM Glutamax I supplemented with 10% FBS (growth medium) in a humidified atmosphere of 5% CO2 at 37° C. Cells to be used in the assay were grown to a density of 8×10^5-1×10^6 cells/ml. The cells were centrifuged for 7 min at 200 g and the cell pellet was resuspended to a concentration of 10^6 cells/ml in RPMI-1640 with 10% FBS.
To allow examination of antiinflammatory effects of the peptides on basal and stimulated cytokine production, peptide-treated macrophages were cultured in the presence of LPS and the levels of TNF-α were measured. The primary screening was based on a mammalian cell line; the human THP-1 line. This line is of monocyte/macrophage origin and responds to various stimuli by increased production of cytokines, like TNF-α and the IL-1β, (Wang et al. 2000). To induce monocyte-macrophage differentiation, THP-1 cells were cultured in 96-well culture plates (10^6 cells/well) in a volume of 100 μl RPMI 1640 medium, containing 50 ng/ml PMA (which is known to induce the maturation of monocytes) and incubated in a humidified atmosphere of 5% CO2, at 37° C. for 48 hours. The medium was then removed and the cells were washed with PBS, added 100 μl fresh medium (without PMA) and incubated for another 24 hours. Medium was removed and the adherent macrophages were treated with 100 μl of peptide solution (concentrations ranging from 0 to 400 μg/ml), diluted in RPMI-1640 medium with 25 mM HEPES and 2 mM Glutamax I, but without […] (assay medium). After incubation at 37° C. for 1 hour, the cells were added LPS (0.1 μg/ml) and further incubated for 6 hours. […] TNF-α concentrations were quantified by the Human TNF-α ELISA MAX kit (BioLegend), according to the manufacturer's instructions. Duplicate readings for each standard, control and sample were recorded. The average absorbance for each set of standards, controls, and samples was calculated using a standard curve. Concentrations were determined by extrapolation on the standard curve.

E. coli (ATCC 25922) = format: cell-based, Escherichia coli
Procedure: as §2

S. aureus (ATCC 9144) = format: cell-based, Staphylococcus aureus; conditions: ATCC 9144
Procedure: as §2

## SHAVKSGIHA [P17 HC (11-20)]
Saccharomyces cerevisiae
  Minimal inhibitory concentration (MIC), Saccharomyces cerevisiae: >100 µM
Botrytis cinerea 101
  Minimal inhibitory concentration (MIC), Botrytis cinerea: >100 µM
[1]
  Minimal inhibitory concentration (MIC), Candida albicans: >100 µM
[2]
  IC50: 103 µM
[3]
  Minimal inhibitory concentration, C. glutamicum: >100 µM
Pseudomonas aeruginosa
  Minimal inhibitory concentration, P. aeruginosa: >100 µM
TNF-α
  Therapeutic index TC50/EC50: >2.2
E. coli (ATCC 25922)
  Minimal inhibitory concentration, E. coli: >100 µM
S. aureus (ATCC 9144)
  Minimal inhibitory concentration, S. aureus: >100 µM
